Data published in ChEMBL document CHEMBL5346873, “Strategic modification of low-activity natural antimicrobial peptides confers antibacterial potential in vitro and in vivo” (Eur J Med Chem, 2023).
In brackets after ≈: the same amount, converted by molar mass.

Legend:
Acinetobacter baumannii = experiment: Bactericidal activity against Acinetobacter baumannii incubated for overnight; format: functional
[1] = Hemolytic activity in human RBC at 100 ug/ml incubated for 1 hr; format: toxicity, cell-based, Erythrocyte; details: human red blood cells (erythrocytes), at 100 µg/mL, read-out: Activity
Staphylococcus aureus = experiment: Bactericidal activity against Staphylococcus aureus incubated for overnight; format: functional
Klebsiella oxytoca [2] = experiment: Bactericidal activity against Klebsiella oxytoca incubated overnight; format: functional
Salmonella typhimurium [3] = experiment: Antibacterial activity against Salmonella typhimurium incubated for 16 to 20 hrs; format: functional, Salmonella enterica subsp. enterica serovar Typhimurium; details: Salmonella enterica; time 16-20 hrs
Enterococcus faecalis [4] = experiment: Antibacterial activity against Enterococcus faecalis incubated for 16 to 20 hrs; format: functional; details: time 16-20 hrs
Vibrio alginolyticus [5] = experiment: Antibacterial activity against Vibrio alginolyticus incubated for 16 to 20 hrs; format: functional; details: time 16-20 hrs
Streptococcus iniae [6] = experiment: Antibacterial activity against Streptococcus iniae incubated for 16 to 20 hrs; format: functional; details: time 16-20 hrs
Vibrio vulnificus [7] = experiment: Antibacterial activity against Vibrio vulnificus 204 incubated for 16 to 20 hrs; format: functional; details: time 16-20 hrs
Klebsiella aerogenes [8] = experiment: Bactericidal activity against Enterobacter aerogenes incubated overnight; format: functional
Streptococcus agalactiae [9] = experiment: Antibacterial activity against Streptococcus agalactiae incubated for 16 to 20 hrs; format: functional; details: time 16-20 hrs
[10] = system: Staphylococcus haemolyticus; experiment: Antibacterial activity against Staphylococcus haemolyticus incubated for 16 to 20 hrs; format: functional; details: time 16-20 hrs
Vibrio anguillarum [11] = experiment: Antibacterial activity against Listonella anguillarum incubated for 16 to 20 hrs; format: functional; details: time 16-20 hrs
Salmonella enterica [12] = experiment: Bactericidal activity against Salmonella enterica incubated overnight; format: functional
Vibrio vulnificus [13] = experiment: Bactericidal activity against Vibrio vulnificus V3 incubated overnight; format: functional
Salmonella typhimurium [14] = experiment: Bactericidal activity against Salmonella typhimurium incubated overnight; format: functional, Salmonella enterica subsp. enterica serovar Typhimurium; details: Salmonella enterica
Vibrio vulnificus [15] = experiment: Antibacterial activity against Vibrio vulnificus V1 incubated for 16 to 20 hrs; format: functional; details: time 16-20 hrs
Vibrio vulnificus [16] = experiment: Antibacterial activity against Vibrio vulnificus V3 incubated for 16 to 20 hrs; format: functional; details: time 16-20 hrs
Aeromonas hydrophila [17] = experiment: Bactericidal activity against Aeromonas hydrophila incubated overnight; format: functional
[18] = system: Staphylococcus haemolyticus; experiment: Bactericidal activity against Staphylococcus haemolyticus incubated overnight; format: functional
Enterococcus faecium [19] = experiment: Antibacterial activity against Enterococcus faecium incubated for 16 to 20 hrs; format: functional; details: time 16-20 hrs
Edwardsiella tarda [20] = experiment: Antibacterial activity against Edwardsiella tarda incubated for 16 to 20 hrs; format: functional; details: time 16-20 hrs
Nakaseomyces glabratus [21] = experiment: Fungicidal activity against Candida glabrata incubated overnight; format: functional
Vibrio harveyi [22] = experiment: Antibacterial activity against Vibrio harveyi incubated for 16 to 20 hrs; format: functional; details: time 16-20 hrs
Klebsiella pneumoniae [23] = experiment: Bactericidal activity against NDM Klebsiella pneumoniae incubated overnight; format: functional
Nakaseomyces glabratus [24] = experiment: Antifungal activity against Candida glabrata incubated for 16 to 20 hrs; format: functional; details: time 16-20 hrs
Edwardsiella tarda [25] = experiment: Bactericidal activity against Edwardsiella tarda incubated overnight; format: functional
Escherichia coli [26] = experiment: Bactericidal activity against Escherichia coli incubated overnight; format: functional
Klebsiella pneumoniae [27] = experiment: Antibacterial activity against NDM Klebsiella pneumoniae incubated for 16 to 20 hrs; format: functional; details: time 16-20 hrs
Klebsiella oxytoca [28] = experiment: Antibacterial activity against Klebsiella oxytoca incubated for 16 to 20 hrs; format: functional; details: time 16-20 hrs
Vibrio anguillarum [29] = experiment: Bactericidal activity against Listonella anguillarum incubated overnight; format: functional
Vibrio alginolyticus [30] = experiment: Bactericidal activity against Vibrio alginolyticus incubated overnight; format: functional
Candida tropicalis [31] = experiment: Antifungal activity against Candida tropicalis incubated for 16 to 20 hrs; format: functional; details: time 16-20 hrs
Pseudomonas aeruginosa [32] = experiment: Bactericidal activity against Pseudomonas aeruginosa incubated overnight; format: functional
Escherichia coli [33] = experiment: Antibacterial activity against Escherichia coli incubated for 16 to 20 hrs; format: functional; details: time 16-20 hrs
Aeromonas hydrophila [34] = experiment: Antibacterial activity against Aeromonas hydrophila incubated for 16 to 20 hrs; format: functional; details: time 16-20 hrs
Enterococcus faecalis [35] = experiment: Bactericidal activity against Enterococcus faecalis incubated overnight; format: functional
Vibrio vulnificus [36] = experiment: Antibacterial activity against Vibrio vulnificus V2 incubated for 16 to 20 hrs; format: functional; details: time 16-20 hrs
Vibrio vulnificus [37] = experiment: Bactericidal activity against Vibrio vulnificus 204 incubated overnight; format: functional
Vibrio vulnificus [38] = experiment: Bactericidal activity against Vibrio vulnificus V2 incubated overnight; format: functional
Enterococcus faecium [39] = experiment: Bactericidal activity against Enterococcus faecium incubated overnight; format: functional
Klebsiella aerogenes [40] = experiment: Antibacterial activity against Enterobacter aerogenes incubated for 16 to 20 hrs; format: functional; details: time 16-20 hrs
Pseudomonas aeruginosa [41] = experiment: Antibacterial activity against Pseudomonas aeruginosa incubated for 16 to 20 hrs; format: functional; details: time 16-20 hrs
Salmonella enterica [42] = experiment: Antibacterial activity against Salmonella enterica incubated for 16 to 20 hrs; format: functional; details: time 16-20 hrs
Vibrio harveyi [43] = experiment: Bactericidal activity against Vibrio harveyi incubated overnight; format: functional
Streptococcus agalactiae [44] = experiment: Bactericidal activity against Streptococcus agalactiae incubated overnight; format: functional
Vibrio vulnificus [45] = experiment: Bactericidal activity against Vibrio vulnificus V1 incubated overnight; format: functional
Candida tropicalis [46] = experiment: Fungicidal activity against Candida tropicalis incubated overnight; format: functional
Streptococcus iniae [47] = experiment: Bactericidal activity against Streptococcus iniae incubated overnight; format: functional

H-FKDKSVLKIVKIFVDIYF-OH
MBC (Acinetobacter baumannii): > 100 µg/mL
hemolysis at 1 h, 100 ug/ml [1]: 16.3%
MBC (Staphylococcus aureus): > 100 µg/mL

H-KKCIAKAILKKAKDLLDDLVNP-OH
MBC (Acinetobacter baumannii): 50 µg/mL
hemolysis at 1 h, 100 ug/ml [1]: 0%
MBC (Staphylococcus aureus): > 100 µg/mL

CC1(C)S[C@@H]2[C@H](NC(=O)[C@H](N)c3ccccc3)C(=O)N2[C@H]1C(=O)O [AMPICILLIN]
MBC (Klebsiella oxytoca [2]): > 100 µg/mL
MIC (Salmonella typhimurium [3]): > 100 µg/mL
MIC (Enterococcus faecalis [4]): 100 µg/mL (≈ 286 µM)
MIC (Vibrio alginolyticus [5]): > 100 µg/mL
MIC (Streptococcus iniae [6]): 6.25 µg/mL (≈ 17.9 µM)
MIC (Vibrio vulnificus [7]): > 100 µg/mL
MBC (Klebsiella aerogenes [8]): 100 µg/mL (≈ 286 µM)
MIC (Streptococcus agalactiae [9]): < 1.56 µg/mL
MIC [10]: < 1.56 µg/mL
MIC (Vibrio anguillarum [11]): > 100 µg/mL
MBC (Salmonella enterica [12]): 6.25 µg/mL (≈ 17.9 µM)
MBC (Vibrio vulnificus [13]): 50 µg/mL (≈ 143 µM)
MBC (Salmonella typhimurium [14]): > 100 µg/mL
MIC (Vibrio vulnificus [15]): 50 µg/mL (≈ 143 µM)
MIC (Vibrio vulnificus [16]): 50 µg/mL (≈ 143 µM)
MBC (Aeromonas hydrophila [17]): > 100 µg/mL
MBC [18]: < 1.56 µg/mL
MIC (Enterococcus faecium [19]): < 1.56 µg/mL
MIC (Edwardsiella tarda [20]): 3.12 µg/mL (≈ 8.94 µM)
MFC (Nakaseomyces glabratus [21]): > 100 µg/mL
MIC (Vibrio harveyi [22]): > 100 µg/mL
MBC (Klebsiella pneumoniae [23]): > 100 µg/mL
MIC (Nakaseomyces glabratus [24]): > 100 µg/mL
MBC (Edwardsiella tarda [25]): 3.12 µg/mL (≈ 8.94 µM)
MBC (Escherichia coli [26]): 6.25 µg/mL (≈ 17.9 µM)
MIC (Klebsiella pneumoniae [27]): > 100 µg/mL
MIC (Klebsiella oxytoca [28]): > 100 µg/mL
MBC (Vibrio anguillarum [29]): > 100 µg/mL
MBC (Vibrio alginolyticus [30]): > 100 µg/mL
MIC (Candida tropicalis [31]): > 100 µg/mL
MBC (Pseudomonas aeruginosa [32]): > 100 µg/mL
MIC (Escherichia coli [33]): 3.12 µg/mL (≈ 8.94 µM)
MIC (Aeromonas hydrophila [34]): > 100 µg/mL
MBC (Enterococcus faecalis [35]): > 100 µg/mL
MIC (Vibrio vulnificus [36]): 50 µg/mL (≈ 143 µM)
MBC (Vibrio vulnificus [37]): > 100 µg/mL
MBC (Vibrio vulnificus [38]): 50 µg/mL (≈ 143 µM)
MBC (Enterococcus faecium [39]): < 1.56 µg/mL
MIC (Klebsiella aerogenes [40]): 50 µg/mL (≈ 143 µM)
MIC (Pseudomonas aeruginosa [41]): > 100 µg/mL
MIC (Salmonella enterica [42]): 3.12 µg/mL (≈ 8.94 µM)
MBC (Vibrio harveyi [43]): > 100 µg/mL
MBC (Streptococcus agalactiae [44]): < 1.56 µg/mL
MBC (Vibrio vulnificus [45]): 50 µg/mL (≈ 143 µM)
MFC (Candida tropicalis [46]): > 100 µg/mL
MBC (Streptococcus iniae [47]): 6.25 µg/mL (≈ 17.9 µM)

H-FKWKSVLKGVDGFVDGYF-OH
MBC (Acinetobacter baumannii): > 100 µg/mL
hemolysis at 1 h, 100 ug/ml [1]: 101%
MBC (Staphylococcus aureus): > 100 µg/mL

H-GKCIAKAIFKGAKKFLKKLVNP-OH
MBC (Acinetobacter baumannii): 3.12 µg/mL
hemolysis at 1 h, 100 ug/ml [1]: 16.7%
MBC (Staphylococcus aureus): > 100 µg/mL

H-FKDKSVLKIVDIFVDIYF-OH
MBC (Acinetobacter baumannii): > 100 µg/mL
hemolysis at 1 h, 100 ug/ml [1]: 2.7%
MBC (Staphylococcus aureus): > 100 µg/mL

H-FKWKSVLKGVKGFVDGYF-OH
MBC (Acinetobacter baumannii): > 100 µg/mL
hemolysis at 1 h, 100 ug/ml [1]: 99.8%
MBC (Staphylococcus aureus): > 100 µg/mL

H-GKCIAKAILKGAKKLLKKLVNP-OH
MBC (Acinetobacter baumannii): 1.56 µg/mL
hemolysis at 1 h, 100 ug/ml [1]: 31.8%
MBC (Staphylococcus aureus): 100 µg/mL

H-FDWDSVLKGVEGFVRGYF-OH
MBC (Acinetobacter baumannii): > 100 µg/mL
hemolysis at 1 h, 100 ug/ml [1]: 15.2%
MBC (Staphylococcus aureus): > 100 µg/mL

H-FKWKSVLKIVKIFVDIYF-OH
MBC (Acinetobacter baumannii): > 100 µg/mL
hemolysis at 1 h, 100 ug/ml [1]: 48.1%
MBC (Staphylococcus aureus): > 100 µg/mL

H-FKDKSVLKIVKIFVKIYF-OH
MBC (Acinetobacter baumannii): > 100 µg/mL
hemolysis at 1 h, 100 ug/ml [1]: 2.2%
MBC (Staphylococcus aureus): > 100 µg/mL

H-GECIWDAIFHGAKHFLHRLVNP-OH
MBC (Acinetobacter baumannii): > 100 µg/mL
hemolysis at 1 h, 100 ug/ml [1]: 28.5%
MBC (Staphylococcus aureus): > 100 µg/mL
